# Source: US10208033B2, “β-carboline, dihydro-β-carboline and tetrahydro-β-carboline alkaloid derivatives and preparation methods same and use in aspects of preventing and treating plant viruses, fungicides and insecticides” (NANKAI UNIVERSITY, priority 2013, dated 2019)
# Tests used:
# [1] = tested on: culex pipiens larvae; conditions: in vivo; cited from earlier work
# [2] = tested on: Lipaphis erysimi; conditions: in vivo; cited from earlier work
# [3] = biological target: monoamine oxidase (MAO-A) (Homo sapiens, UniProt P21397); conditions: cited from earlier work
# monoamine oxidase (MAO-A), sequence (P21397 whole entry, species assumed): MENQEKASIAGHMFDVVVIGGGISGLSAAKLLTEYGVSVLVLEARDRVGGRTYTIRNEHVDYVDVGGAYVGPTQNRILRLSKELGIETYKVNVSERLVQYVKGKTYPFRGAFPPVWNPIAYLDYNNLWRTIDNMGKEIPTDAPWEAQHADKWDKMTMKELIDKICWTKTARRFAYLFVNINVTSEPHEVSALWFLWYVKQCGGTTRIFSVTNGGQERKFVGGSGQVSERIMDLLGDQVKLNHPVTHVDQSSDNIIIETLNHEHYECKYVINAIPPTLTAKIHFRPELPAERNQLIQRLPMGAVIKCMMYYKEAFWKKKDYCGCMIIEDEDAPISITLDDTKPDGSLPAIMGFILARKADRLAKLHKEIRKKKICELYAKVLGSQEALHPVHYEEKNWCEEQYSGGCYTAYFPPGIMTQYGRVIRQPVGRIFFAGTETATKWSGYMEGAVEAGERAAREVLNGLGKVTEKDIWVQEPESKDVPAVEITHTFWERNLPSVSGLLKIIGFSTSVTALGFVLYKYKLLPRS
# [4] = tested on: tobacco mosaic virus (TMV); assay: Anti-TMV in vitro effect (half-leaf soaking); format: cell-based, tobacco mosaic virus (host Nicotiana tabacum L.cv.Xanthi NN)
# [5] = tested on: tobacco mosaic virus (TMV); assay: Anti-TMV in vivo inactivation; parameters: species or system tobacco mosaic virus (host Nicotiana tabacum L.cv.Xanthi NN)
# [6] = tested on: tobacco mosaic virus (TMV); assay: Anti-TMV in vivo therapeutic effect; parameters: species or system tobacco mosaic virus (host Nicotiana tabacum L.cv.Xanthi NN)
# [7] = tested on: tobacco mosaic virus (TMV); assay: Anti-TMV in vivo protective effect; parameters: species or system tobacco mosaic virus (host Nicotiana tabacum L.cv.Xanthi NN)
# [8] = tested on: cucumber fusarium wilt; assay: Fungicidal (bactericidal) activity in vitro, PDA colony diameter; format: cell-based; conditions: 50 mg/kg
# [9] = tested on: Cercospora arachidicola; assay: as above; format: cell-based; conditions: 50 mg/kg
# [10] = tested on: Macrophoma kawatsukai; assay: as above; format: cell-based; conditions: 50 mg/kg
# [11] = tested on: Alternaria solani; assay: as above; format: cell-based; conditions: 50 mg/kg
# [12] = tested on: Fusarium graminearumt; assay: microbe, parasite or virus in culture; format: cell-based; conditions: for Bactericidal activity (%) Fusarium graminearumt: 50 mg/kg
# [13] = tested on: potato late blight; assay: microbe, parasite or virus in culture; format: cell-based
# [14] = tested on: Sclerotinia scleotiorum; assay: Fungicidal (bactericidal) activity in vitro, PDA colony diameter; format: cell-based; conditions: 50 mg/kg
# [15] = tested on: Botrytis cinerea; assay: as above; format: cell-based; conditions: 50 mg/kg
# [16] = tested on: Rhizoctonia solani; assay: as above; format: cell-based; conditions: 50 mg/kg
# [17] = tested on: Phytophthora capsici; assay: as above; format: cell-based; conditions: 50 mg/kg
# [18] = tested on: Fusarium fujikuroi; assay: as above; format: cell-based; conditions: 50 mg/kg
# [19] = tested on: Rhizoctonia cereali; assay: as above; format: cell-based; conditions: 50 mg/kg
# [20] = tested on: Bipolaria maydis; assay: organism not typed; format: cell-based; conditions: for Bactericidal activity (%) Bipolaria maydis: 50 mg/kg
# [21] = tested on: Colletotrichum orbiculare; assay: Fungicidal (bactericidal) activity in vitro, PDA colony diameter; format: cell-based; conditions: 50 mg/kg
# [22] = tested on: armyworms; format: in vivo; conditions: concentration 600 mg/kg
# [23] = tested on: cotton bollworms; assay: whole plant or invertebrate; conditions: for Cotton bollworm Mortality (%): concentration 600 mg/kg
# Procedure: Experimental method of cotton bollworms: feed and drug mixing method: measure 3 mL of prepared solution and add it to about 27 g of newly prepared feed, thereby obtaining needed concentration through dilution by 10 times.
# [24] = tested on: mosquito larvae; assay: whole plant or invertebrate; conditions: 24 h; for Mosquito larvae Mortality (%): concentration 10 mg/kg
# Outline: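 Early fourth-instar Culex pipiens pallens larvae from an indoor colony, 10 per beaker, exposed to test compound at 5 ppm in water, diluted from a 1000 ppm acetone mother solution. Blank: water containing 0.5 mL test solvent.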
# [25] = tested on: HL60; conditions: cited from earlier work
# [26] = tested on: corn borers; assay: whole plant or invertebrate; conditions: read-out: Corn borer Mortality (%)
# [27] = tested on: 14 kinds of fungi; assay: Bactericidal activity, overall statements on Table 2; format: cell-based; conditions: Table 2, 50 mg/kg
# Text: In vitro test method (Alternaria solani is taken for example. Alternatively, other fungi may be used): Inoculate Alternaria solani to PDA culture medium, culture it for 7 days, prepare […] bacteria plates from colony edge by a puncher, inoculate […] and drug-free PDA culture media, culture them for 4 days, measure colony diameter, compare with the control group and calculate the inhibition percentage of the drug.
# [28] = tested on: corn borers; conditions: concentration 600 mg/kg
smiles,measurement,setting,value
COC(=O)c1cc2c([nH]c3ccccc32)c(-c2ccccc2)n1,LC50 against culex pipiens larvae,[1],20.82 µg/mL
same,LC50 against Lipaphis erysimi,[2],53.16 µg/mL
COC(=O)C1Cc2c([nH]c3ccccc23)C(c2ccccc2)N1 (stereo not shown),LC50 against culex pipiens larvae,[1],23.98 µg/mL
same,LC50 against Lipaphis erysimi,[2],68.05 µg/mL
COc1ccc2c3c([nH]c2c1)C(C)=NCC3 [Harmaline],inhibition of monoamine oxidase (MAO-A),[3],reversible inhibitor
COc1ccc2c(c1)[nH]c1c(C)nccc12 [Harmine],inhibition at 100 µg/mL,"[4]; Tobacco mosaic virus, treatment dose 100 μg/mL, read-out: Relative inhibition rate (%) In vitro activity",20%
same,inhibition at 500 µg/mL,"[4]; Tobacco mosaic virus, treatment dose 500 μg/mL, read-out: Relative inhibition rate (%) In vitro activity",44.6%
same,inhibition at 100 µg/mL,"[5]; Tobacco mosaic virus, treatment dose 100 μg/mL, read-out: Relative inhibition rate (%) In vivo inactivation",11.4%
same,inhibition at 500 µg/mL,"[5]; Tobacco mosaic virus, treatment dose 500 μg/mL, read-out: Relative inhibition rate (%) In vivo inactivation",40.5%
same,inhibition at 100 µg/mL,"[6]; Tobacco mosaic virus, treatment dose 100 μg/mL, read-out: Relative inhibition rate (%) In vivo therapy",15.8%
same,inhibition at 500 µg/mL,"[6]; Tobacco mosaic virus, treatment dose 500 μg/mL, read-out: Relative inhibition rate (%) In vivo therapy",38.6%
same,inhibition at 100 µg/mL,"[7]; Tobacco mosaic virus, treatment dose 100 μg/mL, read-out: Relative inhibition rate (%) In vivo protection",16.3%
same,inhibition at 500 µg/mL,"[7]; Tobacco mosaic virus, treatment dose 500 μg/mL, read-out: Relative inhibition rate (%) In vivo protection",42.4%
same,inhibition of growth at 50 mg/kg,"[8]; Fusarium, 96 h",28.6%
same,inhibition of growth at 50 mg/kg,"[9]; Mycosphaerella arachidis, 96 h",57.1%
same,inhibition at 50 mg/kg,[10],35.3%
same,inhibition of growth at 50 mg/kg,"[11]; Alternaria solani, 96 h",83.3%
same,inhibition of growth at 50 mg/kg,"[12]; Fusarium, 96 h, read-out: Bactericidal activity (%) Fusarium graminearumt",92.9%
same,inhibition of growth at 50 mg/kg,"[13]; Phytophthora infestans, 96 h, read-out: Bactericidal activity (%) potato late blight",35%
same,inhibition of growth at 50 mg/kg,"[14]; Sclerotinia, 96 h",48%
same,inhibition of growth at 50 mg/kg,"[15]; Botrytis cinerea, 96 h",59.1%
same,inhibition of growth at 50 mg/kg,"[16]; Rhizoctonia solani, 96 h",21.4%
same,inhibition of growth at 50 mg/kg,"[17]; Phytophthora capsici, 96 h",60.6%
same,inhibition of growth at 50 mg/kg,"[18]; Fusarium fujikuroi, 96 h",57.1%
same,inhibition of growth at 50 mg/kg,"[19]; Rhizoctonia, 96 h",71.9%
same,inhibition at 50 mg/kg,[20]; read-out: Bactericidal activity (%) Bipolaria maydis,31.6%
same,inhibition of growth at 50 mg/kg,"[21]; Colletotrichum orbiculare, 96 h",57.1%
same,Armyworm Mortality (%),[22],20%
same,mortality at 600 mg/kg,"[23]; Helicoverpa armigera, in Gossypium hirsutum, read-out: Cotton bollworm Mortality (%)",15%
same,mortality at 10 mg/kg,"[24]; Culex pipiens, read-out: Mosquito larvae Mortality (%)",45%
same,cytotoxicity to leukemia cell line HL60,[25],shows cytotoxicity
same,mortality at 600 mg/kg,[26],15%
"Cc1nc(C=O)cc2c1[nH]c1ccccc12 [Ia-13, 1-methyl-pyridino [3,4-b] indol-3-formaldehyde]",melting point,,194 to 196 °C
"CC[C@@H]1N[C@H](C(=O)O)Cc2c1[nH]c1ccccc21 [Ib-3, (1S, 3S)-1-ethyl-2,3,4,9-tetrahydropyridino [3,4-b] indol-3-formic acid]",melting point,,277 to 280 °C
"C[C@@H]1N[C@H](C(=O)NN=Cc2ccc(Cl)cc2)Cc2c1[nH]c1ccccc21 [Ic-5, (1S, 3S)—N′-(4-chlorobenzylidene)-1-methyl-2,3,4,9-tetrahydropyridino [3,4-b] indol-3-formylhydrazine]",Relative inhibition rate (%) In vitro activity,[4]; treatment dose 100 μg/mL,30.8%
same,Relative inhibition rate (%) In vitro activity,[4]; treatment dose 500 μg/mL,67.3%
same,Relative inhibition rate (%) In vivo inactivation,[5]; treatment dose 100 μg/mL,35.9%
same,Relative inhibition rate (%) In vivo inactivation,[5]; treatment dose 500 μg/mL,70.4%
same,Relative inhibition rate (%) In vivo therapy,[6]; treatment dose 100 μg/mL,29.2%
same,Relative inhibition rate (%) In vivo therapy,[6]; treatment dose 500 μg/mL,71.5%
same,Relative inhibition rate (%) In vivo protection,[7]; treatment dose 100 μg/mL,34.1%
same,Relative inhibition rate (%) In vivo protection,[7]; treatment dose 500 μg/mL,64.2%
same,Bactericidal activity (%) Cucumber fusarium wilt,[8],61.5%
same,Bactericidal activity (%) Cercospora arachidicola,[9],76.5%
same,Bactericidal activity (%) Macrophoma kawatsukai,[10],97.2%
same,Bactericidal activity (%) Alternaria solani,[11],55.0%
same,Bactericidal activity (%) Fusarium graminearumt,[12],75.9%
same,Bactericidal activity (%) potato late blight,[13],80.0%
same,Bactericidal activity (%) Sclerotinia scleotiorum,[14],88.2%
same,Bactericidal activity (%) Botrytis cinerea,[15],59.1%
same,Bactericidal activity (%) Rhizoctonia solani,[16],81.6%
same,Bactericidal activity (%) Phytophthora capsici,[17],81.6%
same,Bactericidal activity (%) Fusarium fujikuroi,[18],64.3%
same,Bactericidal activity (%) Rhizoctonia cereali,[19],94.1%
same,Bactericidal activity (%) Bipolaria maydis,[20],68.0%
same,Bactericidal activity (%) Colletotrichum orbiculare,[21],77.8%
same,Armyworm Mortality (%),[22],25%
same,Cotton bollworm Mortality (%),[23],25%
same,Mosquito larvae Mortality (%),[24],50%
same,bactericidal activity against fungi (in words),[27],very good bactericidal activity against various kinds of fungi
same,Corn borer Mortality (%),[28],20%
"C[C@@H]1N[C@H](C(=O)NN=Cc2ccc(Cl)c(Cl)c2)Cc2c1[nH]c1ccccc21 [Ic-7, (1S, 3S)—N′-(3,4-dichlorobenzylidene)-1-methyl-2,3,4,9-tetrahydropyridino [3,4-b] indol-3-formylhydrazine]",Relative inhibition rate (%) In vitro activity,[4]; treatment dose 100 μg/mL,15.1%
same,Relative inhibition rate (%) In vitro activity,[4]; treatment dose 500 μg/mL,50.7%
same,Relative inhibition rate (%) In vivo inactivation,[5]; treatment dose 100 μg/mL,20.4%
same,Relative inhibition rate (%) In vivo inactivation,[5]; treatment dose 500 μg/mL,55.2%
same,Relative inhibition rate (%) In vivo therapy,[6]; treatment dose 100 μg/mL,23.5%
same,Relative inhibition rate (%) In vivo therapy,[6]; treatment dose 500 μg/mL,48.9%
same,Relative inhibition rate (%) In vivo protection,[7]; treatment dose 100 μg/mL,14.8%
same,Relative inhibition rate (%) In vivo protection,[7]; treatment dose 500 μg/mL,48.1%
same,Bactericidal activity (%) Cucumber fusarium wilt,[8],77.3%
same,Bactericidal activity (%) Cercospora arachidicola,[9],72.7%
same,Bactericidal activity (%) Macrophoma kawatsukai,[10],97.0%
same,Bactericidal activity (%) Alternaria solani,[11],71.4%
same,Bactericidal activity (%) Fusarium graminearumt,[12],76.9%
same,Bactericidal activity (%) potato late blight,[13],65.2%
same,Bactericidal activity (%) Sclerotinia scleotiorum,[14],84.6%
same,Bactericidal activity (%) Botrytis cinerea,[15],80.6%
same,Bactericidal activity (%) Rhizoctonia solani,[16],62.5%
same,Bactericidal activity (%) Phytophthora capsici,[17],84.8%
same,Bactericidal activity (%) Fusarium fujikuroi,[18],70.6%
same,Bactericidal activity (%) Rhizoctonia cereali,[19],97.3%
same,Bactericidal activity (%) Bipolaria maydis,[20],80.0%
same,Bactericidal activity (%) Colletotrichum orbiculare,[21],80.0%
same,Armyworm Mortality (%),[22],5%
same,Cotton bollworm Mortality (%),[23],30%
same,Mosquito larvae Mortality (%),[24],10%
same,bactericidal activity against fungi (in words),[27],very good bactericidal activity against various kinds of fungi
same,Corn borer Mortality (%),[28],5%
